The results in this text go back to US8835428B2, “Diacylglycerol acyltransferase inhibitors” (Piramal Enterprises Limited, priority 2008, dated 2014).

In the assay the target is T1, hDGAT1 (Homo sapiens, UniProt O75907).
T1 construct: host or cells: Sf9 insect cells (baculovirus); microsomal preparation
T1 sequence (O75907 1-488): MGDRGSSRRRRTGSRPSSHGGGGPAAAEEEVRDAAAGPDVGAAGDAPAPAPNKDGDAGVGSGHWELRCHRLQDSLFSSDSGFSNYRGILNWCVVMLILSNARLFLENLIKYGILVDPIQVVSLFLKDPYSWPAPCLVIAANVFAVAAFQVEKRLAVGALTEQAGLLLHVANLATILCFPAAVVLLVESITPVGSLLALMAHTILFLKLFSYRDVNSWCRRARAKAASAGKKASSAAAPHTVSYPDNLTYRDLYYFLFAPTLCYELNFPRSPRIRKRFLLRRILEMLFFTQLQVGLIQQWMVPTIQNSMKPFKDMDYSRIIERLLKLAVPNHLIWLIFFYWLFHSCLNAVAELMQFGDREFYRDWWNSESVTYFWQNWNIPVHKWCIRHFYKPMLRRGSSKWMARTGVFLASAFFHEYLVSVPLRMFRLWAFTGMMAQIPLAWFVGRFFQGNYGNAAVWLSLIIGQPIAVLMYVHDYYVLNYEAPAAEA
Put plainly: In-vitro DGAT1 assay (hDGAT1 microsomes from Sf9 cells, 14C oleoyl CoA, triglyceride formation). The assay is classed as biochemical. An outline of the steps: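 Human DGAT1 in baculovirus-infected Sf9 microsomes (2.5–10 μg), [14C]oleoyl-CoA with 409.5, 1228.5 or 1638 μM 1,2-dioleoyl-sn-glycerol, Tris-HCl pH 7.4 buffer with BSA. Compounds screened at 10, 5 and 1 μM in duplicate. Reaction 10 min at 37 °C; heptane-extracted [14C]triglyceride counted by scintillation.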

What is called inhibition is the share of the control response that was lost under treatment. For `CC(C)[C@H](NC(=O)c1csc(-c2ccc(NC(=O)Nc3cccc(C(F)(F)F)c3)cc2)n1)C(=O)O` [Example 367, (S)-3-Methyl-2-(2-(4-(3-(3-(trifluoromethyl)phenyl)ureido)phenyl)thiazole-4-carboxamido)butanoic acid], for the setting “At 1 μM”, the inhibition at 1 µM was in the range of 0 to 50%. In the case of “2-(3-(4-(Benzyloxy)phenyl)isoxazole-5-carboxamido)-3-methylbutanoic acid [Example 324]”, the “% inhibition of hDGAT1” value (At 1 μM) is reported as “+ (>0% Inhibition ≦50)”.

As to `CC(C)C[C@H](NC(=O)c1onc(-c2ccc(NC(=O)Nc3ccccc3)cc2)c1-c1ccccc1)C(=O)O` [Example 91, (S)-4-Methyl-2-({4-phenyl-3-[4-(3-phenyl-ureido)-phenyl]-isoxazole-5-carbonyl}-amino)-pentanoic acid], where the note is “At 10 μM”, the inhibition at 10 µM lay within 0 to 50%. Same read-out and setting: next, `CC(C)[C@H](NC(=O)c1cc(-c2ccc(NC(=O)Nc3ccccc3)cc2)no1)C(=O)O` [Example 77, (S)-3-Methyl-2-({3-[4-(3-phenyl-ureido)-phenyl]-isoxazole-5-carbonyl}-amino)-butyric acid]: 75 to 100%; `O=C(O)c1cc(-c2cccc(Nc3nc4ccc(F)cc4s3)c2)no1` [Example 21, 3-[3-(6-Fluoro-benzothiazol-2-ylamino)-phenyl]-isoxazole-5-carboxylic acid]: 0 to 50%. `Cc1ccc(F)c(NC(=O)Nc2ccc(-c3cc(C(=O)NC(C(=O)O)C(C)C)on3)cc2)c1` (stereo not drawn) [Example 156, 2-(3-(4-(3-(2-fluoro-5-methylphenyl)ureido)phenyl)isoxazole-5-carboxamido)-3-methylbutanoic acid]: the inhibition at 1 µM (At 1 μM) is 75 to 100%. In turn, `COC(=O)C(NC(=O)c1cc(-c2ccc(NC(=O)Nc3c(F)cccc3F)cc2)no1)C(C)C` (stereo not drawn) [Example 123, Methyl 2-(3-(4-(3-(2,6-difluorophenyl)ureido)phenyl)isoxazole-5-carboxamido)-3-methylbutanoate] registered an inhibition at 10 µM (At 10 μM) of 50 to 75%.

Molecule `COC(=O)C(NC(=O)c1cc(-c2ccc(NC(=O)Nc3ccc(OC)cc3)cc2)no1)C(C)C` (stereo not drawn) [Example 127, Methyl 2-(3-(4-(3-(4-methoxyphenyl)ureido)phenyl)isoxazole-5-carboxamido)-3-methylbutanoate] displayed an inhibition at 10 µM (At 10 μM) of 0 to 50%. On the same count and under the same terms, next, `COC(=O)[C@@H](NC(=S)c1cc(-c2cccc(Nc3nc4ccc(F)cc4s3)c2)no1)C(C)C` [Example 24, (S)-2-({3-[3-(6-Fluoro-benzothiazol-2-ylamino)-phenyl]-isoxazole-5-carbothioyl}-amino)-3-methyl-butyric acid methyl ester]: 0 to 50%. As to `CC(C)C(NC(=O)c1cc(-c2ccc(NC(=O)Nc3ccc(OC(F)(F)F)c(Cl)c3)cc2)no1)C(=O)O` (stereo not drawn) [Example 289, (3-(4-(3-(3-chloro-4-(trifluoromethoxy)phenyl)ureido)phenyl)isoxazole-5-carboxamido)-3-methylbutanoic acid], under “At 1 μM”, the “% inhibition of hDGAT1” value is recorded as “+++ (>75% Inhibition ≦100)”. Regarding `COC(=O)C(Cc1ccccc1)NC(=O)c1cc(-c2ccc(NC(=O)Nc3ccc(F)cc3F)cc2)no1` (stereo not drawn) [Example 245, Methyl 2-(3-(4-(3-(2,4-difluorophenyl)ureido)phenyl)isoxazole-5-carboxamido)-3-phenylpropanoate], the inhibition at 5 µM lay in the range of 0 to 50%. On to `COC(=O)C(CC(C)C)NC(=O)c1cc(-c2ccc(NC(=O)Nc3ccc(F)cc3F)cc2)no1` (stereo not drawn) [Example 113, Methyl 2-(3-(4-(3-(2,4-difluorophenyl)ureido)phenyl)isoxazole-5-carboxamido)-4-methylpentanoate], for which the inhibition at 10 µM (At 10 μM) lay within 0 to 50%.

The molecule `Cc1cc(F)ccc1NC(=O)Nc1ccc(-c2cc(C(=O)NC(C(=O)O)C(C)C)on2)cc1` (stereo not drawn) [Example 285, 2-(3-(4-(3-(4-fluoro-2-methylphenyl)ureido)phenyl)isoxazole-5-carboxamido)-3-methylbutanoic acid] came in with an inhibition at 5 µM of 75 to 100%. As for `Cc1ccc(NC(=O)Nc2ccc(-c3nc(C(=O)N[C@H](C(=O)O)C(C)C)cs3)cc2)cc1C` [Example 363, (S)-2-(2-(4-(3-(3,4-dimethylphenyl)ureido)phenyl)thiazole-4-carboxamido)-3-methylbutanoic acid], the inhibition at 1 µM (At 1 μM) was 0 to 50%.

For `COC(=O)[C@H](CO)NC(=O)c1cc(-c2ccc(Nc3nc4ccc(F)cc4s3)cc2)no1` [Example 9, (S)-2-({3-[4-(6-Fluoro-benzothiazol-2-ylamino)-phenyl]-isoxazole-5-carbonyl}-amino)-3-hydroxy-propionic acid methyl ester], the inhibition at 10 µM (At 10 μM) fell in the range of 0 to 50%.

As for `CC(C)C(NC(=O)c1cc(-c2ccc(NC(=O)Nc3ccccc3F)c(F)c2)no1)C(=O)O` (stereo not drawn) [Example 148, 2-(3-(3-fluoro-4-(3-(2-fluorophenyl)ureido)phenyl)isoxazole-5-carboxamide)-3-methylbutanoic acid], the “% inhibition of hDGAT1” value (At 10 μM) is reported as “+++ (>75% Inhibition ≦100)”.

In turn, `COC[C@H](NC(=S)c1c(-c2ccc(Nc3nc4ccc(F)cc4s3)cc2)noc1-c1ccccc1)C(=O)OC` [Example 74, (S)-2-({3-[4-(6-Fluoro-benzothiazol-2-ylamino)-phenyl]-5-phenyl-isoxazole-4-carbothioyl}-amino)-3-methoxy-propionic acid methyl ester] showed an inhibition at 10 µM (At 10 μM) of 0 to 50%.

`CC(C)[C@@H](C(=O)O)N(C)C(=O)c1cc(-c2ccc(NC(=O)Nc3ccc(F)cc3)cc2)no1` [Example 308, (S)-2-(3-(4-(3-(4-fluorophenyl)ureido)phenyl)-N-methylisoxazole-5-carboxamido)-3-methylbutanoic acid] had an inhibition at 1 µM (At 1 μM) of 50 to 75%.

Regarding `COC(=O)[C@@H](NC(=O)c1cc(-c2ccc(NC(=O)Nc3cccc(C)c3)cc2)no1)C(C)C` [Example 265, (S)-methyl 3-methyl-2-(3-(4-(3-m-tolylureido)phenyl)isoxazole-5-carboxamido)butanoate], the inhibition at 5 µM is 50 to 75%.

With `COC(=O)C(CC(C)C)NC(=O)c1cc(-c2cc(NC(=O)Nc3ccc(F)cc3)ccc2C)no1` (stereo not drawn) [Example 131, Methyl 2-(3-(5-(3-(4-fluorophenyl)ureido)-2-methylphenyl)isoxazole-5-carboxamido)-4-methylpentanoate], the inhibition at 10 µM (At 10 μM) was 0 to 50%. With `COC[C@H](NC(=NO)c1cc(-c2cccc(Nc3nc4ccc(F)cc4s3)c2)no1)C(=O)O` [Example 33, (S)-2-({3-[3-(6-Fluoro-benzothiazol-2-ylamino)-phenyl]-N-hydroxy-isoxazole-5-carboximidoyl}-amino)-3-methoxy-propionic acid], the inhibition at 10 µM (At 10 μM) lay in the range of 0 to 50%. In the case of `COC(=O)[C@H]1CCCN1C(=O)c1cc(-c2ccc(NC(=O)Nc3ccccc3F)cc2)no1` [Example 259, (R)-Methyl 1-(3-(4-(3-(2-fluorophenyl)ureido)phenyl)isoxazole-5-carbonyl)pyrrolidine-2-carboxylate], the inhibition at 1 µM (At 1 μM) lay in the range of 50 to 75%. The molecule `COC(=O)[C@@H](NC(=O)c1nc(-c2ccc(NC(=O)Nc3ccc(OC)cc3)cc2)no1)C(C)C` [Example 344, (S)-Methyl 2-(3-(4-(3-(4-methoxyphenyl)ureido)phenyl)-1,2,4-oxadiazole-5-carboxamido)-3-methylbutanoate] had an inhibition at 5 µM of 0 to 50%. On the same count and under the same terms, next, `COC(=O)C(NC(=O)c1cc(-c2ccc(NC(=O)NS(=O)(=O)c3ccccc3C)cc2)no1)C(C)C` (stereo not drawn) [Example 263, Methyl 3-methyl-2-(3-(4-(3-(o-tolylsulfonyl)ureido)phenyl)isoxazole-5-carboxamido)butanoate]: 0 to 50%.
